Test results taken from patent US6080791A, “Method of treating a viral condition by inhibiting membrane fusion” (priority 1992, dated 2000).
Where two headings read alike, the source gives them in different places.

Legend:
[1] = biological target: C22 BHA (Influenza A virus (A/X-31(H3N2)), UniProt P03438); format: biochemical
[2] = test system: low pH BHA; test: SPA POST control (nonspecific quenching); parameters: species or system C22 / X31 influenza virus (H3N2)
Method: The compounds being screened by SPA are present during scintillation counting. Some of the chemicals, particularly those that are highly colored, quench the detection of radioactivity. A control ("POST") distinguishes whether apparent inhibition arises from inhibition of the conformational change or from nonspecific effects. The test compound is added to a sample of BHA that had previously been acidified and reneutralized. The mixture is then precipitated as usual. Since the BHA treated in this manner is known to be in the low pH conformation, a reduction in measurable cpm compared to controls with ligand omitted proves the compound interferes with the detection system.
^3 H-Leu BHA was diluted to 10,000 cpm (counts per minute) per 200 μl in MSSH buffer (10 mM HEPES, 10 mM MES, 10 mM succinate, 0.10 M NaCl, pH 7.0) containing 0.1% NP40. Protein was incubated with the specified concentration of trial compound for 25 minutes at RT. The same volume of solvent used to dissolve the compound was added to control samples and the final concentration of DMSO in all solutions was 0.67% v/v. A predetermined amount of 1N HAc was added to bring the reactions to the appropriate pH (usually pH 5.0). Following a 5 minute (unless specified otherwise) incubation at RT, reactions were reneutralized with 1N NaOH. For POST controls, compounds were added to the appropriate concentration after reneutralization. 200 μL aliquots of the protein solution were added to scintillation vials containing 100 μl protein A-SPA beads (Amersham), 5% fetal bovine serum (FBS), and antibody. Vials were incubated overnight at RT with constant shaking. Each reaction used 10 μl of fusion peptide antiserum diluted 1:10 with 50% glycerol. Cpm were detected in a Beckman LS3801 scintillation counter without addition of liquid scintillant.
Apparent inhibition due to nonspecific effects was quantitated from the POST controls with the equation:
observed cpm=true cpm*quench factor

[3] = biological target: hemagglutinin (BHA), fusion peptide exposure (Influenza A virus (A/X-31(H3N2)), UniProt P03438); format: biochemical, C22 / X31 influenza virus (H3N2); details: for inhibition in the SPA assay: 1 μM-1 mM
[4] = biological target: BHA (Influenza A virus (A/X-31(H3N2)), UniProt P03438); format: biochemical, C22 / X31 influenza virus (H3N2); details: 1 mM
[5] = test system: C22 virus in MDCK2 cells
[6] = test system: hemagglutinin-mediated hemolysis of human red blood cells; test: Hemolysis (HEM) assay; format: cell-based, C22 influenza virus; human red blood cells; details: for inhibition at 1000 µM: log conc -3 (M); for inhibition at 100 µM: log conc -4 (M)
[7] = in vitro; details: dog, mdck
Method: The ELISA-based assay described below (EIA antiviral assay) was used to measure antiviral activity. Cell viability was measured in parallel to distinguish inhibition of viral replication from toxicity.
Infections of MDCK2 cells with virus, compounds, and DMSO were set up identically as for the EIA assay. Following the 15 hour incubation, test compounds were washed away with PBS. 50 μl of MDCK2 growth media and 25 μl 2 mg/ml 3-(4,5-dimethylthiazol-2-yl)-2,5-diphenyl tetrazolium bromide (Sigma) in PBS were added to each well. Plates were returned to 37° C., 5% CO2 for 4 hrs. Crystals were broken up by vigorous mixing following addition of 80 μl isopropanol/0.04 N HCl. After incubation for 30 mins at RT, OD570 was read on an ELISA reader. % Inhibition is the % reduction of OD570 in the wells infected with compound compared to otherwise identical samples with compound omitted.

[8] = test system: hemoglobin; test: Hb control (quenching of OD570 of hemoglobin); parameters: species or system human
[9] = biological target: T1, hemagglutinin (Influenza A virus (A/X-31(H3N2)), UniProt P03438); test: Binding site by crystallography (preliminary)
T1 construct: HA1 and HA2 cleaved from precursor HA0

[10] = biological target: HIV-1 fusion protein (Human immunodeficiency virus type 1 group M subtype B, UniProt P04578); test: Inhibition of fusion mediated by the HIV-1 fusion protein; format: cell-based
[11] = test system: C22 virus in MDCK2 cells; test: microbe, parasite or virus in culture; details: unidentified influenza virus
[12] = test system: influenza-mediated syncytia formation, CV-1 cells
[13] = Method: Synthesis, purification, and characterization of selected compounds are summarized below. Stock solutions were prepared fresh daily. All solutions of the test compounds were prepared in dimethyl-sulfoxide (DMSO).
[14] = test system: influenza-mediated syncytia formation, CV-1 cells; test: cells; details: unidentified influenza virus, CV-1, read-out: IC50 syncytia
[15] = unidentified influenza virus, Erythrocyte, Table 7, read-out: HEM, negative log of IC50 (converted)
[16] = MDCK2, 15 h, read-out: infectivity % inhibition
[17] = MDCK2, read-out: IC50 infectivity
[18] = MDCK2, read-out: INF, negative log of IC50 (converted)
[19] = unidentified influenza virus, Erythrocyte, 0.25 h, Table 6, 10^-3 = 1 mM, low pH 15 minutes, read-out: IC50 hemolysis
[20] = unidentified influenza virus, Erythrocyte, read-out: hemolysis % ↓ OD

O=C1C=CC(=O)C2C3C=CC(C3)C12 (centres unmarked) [Compound 83K, 4A,5,8,8A-tetrahydro-5,8-methano-1,4-naphthoguinone]
inhibition at low pH ([1]; 10 seconds at pH 5.0): 73%
inhibition at low pH ([1]; 10 minutes at pH 5.0): 43%
fraction of its maximal inhibition of fusion peptide exposure maintained ([1]; after 10 minutes at pH 5.0, C22 BHA): 60%
Inhibition of the POST controls ([2]; 10 mM): 26.4%
Inhibition of the POST controls ([2]; all other concentrations (below 10 mM)): ≤ 4%
% inhibition, POST control ([2]; log conc -3 (M)): -5.3 ± 2.1%
% inhibition, POST control ([2]; log conc -4 (M)): 3.0%
% inhibition, POST control ([2]; log conc -5 (M)): 0.8 ± 12.7%
% inhibition, POST control ([2]; log conc -6 (M)): -6.2%
% inhibition, sample (Table 1) [3]: 49.1 ± 15.0%
inhibition at 10^-5 M ([3]; 10^-5 M): negligible inhibition
reversibility of inhibition by dilution [4]: reversible by dilution
infectivity in Table 6 [5]: toxic
INF, words (Table 7) [5]: toxic
inhibition of hemolytic activity [6]: apparently inhibited hemolytic activity
IC50 [6, 15]: 100 to 1000 µM
cytotoxicity at 15 h, 1 µM [7]: 3.4 ± 10.5%
cytotoxicity at 15 h, 10 µM [7]: 7.3 ± 8.9%
cytotoxicity at 15 h, 100 µM [7]: 46.4 ± 15.1%
cytotoxicity at 15 h, 1000 µM [7]: 92.9 ± 7.4%

O=C1C=CC(=O)c2ccccc21 [Compound 90, 1,4-naphthoquinone]
Hb control % ↓ OD ([8]; log conc -3 (M)): 68.1%
Hb control % ↓ OD ([8]; log conc -4 (M)): 57.1%
Hb control % ↓ OD ([8]; log conc -5 (M)): 24.9%
% inhibition, POST control ([2]; log conc -3 (M)): 68.2%
% inhibition, POST control ([2]; log conc -4 (M)): 30.8%
% inhibition, POST control ([2]; log conc -5 (M)): 4.6%
binding site (preliminary crystallographic results) [9]: binding to hemagglutinin at a site in the hinge region of the trimer
IC50 [10]: 2 µM
inhibition at 1 µM [11, 16]: -3.3 ± 2.4%
inhibition at 10 µM [11, 16]: 81.7 ± 2.2%
inhibition at 100 µM [11, 16]: 96.9%
IC50 [11, 17]: 10 µM
IC50 [11, 18]: 10 µM
IC50 [6, 19]: 1000 µM
IC50 [6, 15]: 1000 µM
inhibition at 1000 µM [6, 20]: 90.3%
inhibition at 100 µM [6, 20]: 33.1%
inhibition at 10 µM ([6]; unidentified influenza virus, Erythrocyte, log conc -5 (M), read-out: hemolysis % ↓ OD): 4.7%
cytotoxicity at 15 h, 1 µM [7]: -6.7 ± 7.3%
cytotoxicity at 15 h, 10 µM [7]: 33 ± 9.9%
cytotoxicity at 15 h, 100 µM [7]: 96.8 ± 3.8%
syncytia, Table 6 ([12]; Table 6): morph

Oc1ccc(Cl)c2ccccc12 [Compound 101, 4-chloro-1-naphthol]
Hb control % ↓ OD ([8]; log conc -3 (M)): 93.0%
inhibition in the SPA assay [3]: showed no inhibition
activity note in Table 7 [3]: inactive
solubility at 1 mM [13]: only partially soluble at 1 mM
inhibition at 1000 µM [6, 20]: 112%
cytotoxicity at 15 h, 100 µM [7]: 97.4%

O=C1c2ccccc2C(=O)c2c(O)ccc(O)c21 [Compound 102, quinizarin]
inhibition in the SPA assay [3]: showed no inhibition
activity note in Table 7 [3]: inactive
solubility at 1 mM [13]: only partially soluble at 1 mM

Oc1ccc(O)c(-c2ccccc2)c1 [Compound 105, phenylhydroquinone]
infectivity in Table 6 [5]: toxic
INF, words (Table 7) [5]: toxic
solubility at 1 mM [13]: only partially soluble at 1 mM
cytotoxicity at 15 h, 100 µM [7]: 100%

COc1ccc(O)c2ccccc12 [Compound 107, 4-methoxy-1-naphthol]
Hb control % ↓ OD ([8]; log conc -3 (M)): 92.5%
infectivity in Table 6 [5]: toxic
INF, words (Table 7) [5]: toxic
IC50 [10]: 50 µM
solubility at 1 mM [13]: only partially soluble at 1 mM
hemolysis column of Table 6, words ([6]; Table 6): quench
HEM, words (Table 7) ([6]; Table 7): quench
inhibition at 1000 µM [6, 20]: 104%
cytotoxicity at 15 h, 100 µM [7]: 96.9%

Oc1ccc(O)c2ccccc12 [Compound 110, 1,4-dihydroxynaphthalene]
inhibition at 1 µM [11, 16]: -9.8 ± 0.6%
inhibition at 10 µM [11, 16]: 61.1 ± 50.8%
inhibition at 100 µM [11, 16]: 91.9 ± 11.5%
inhibition at 1000 µM [11, 16]: 102%
solubility at 1 mM [13]: only partially soluble at 1 mM
cytotoxicity at 15 h, 1 µM [7]: 5 ± 12.5%
cytotoxicity at 15 h, 10 µM [7]: 19.2 ± 15.6%
cytotoxicity at 15 h, 100 µM [7]: 98.3 ± 1.2%
cytotoxicity at 15 h, 1000 µM [7]: 96.9 ± 0.4%

O=c1[nH]c(=O)n(O)c2nc[nH]c12 [Compound 113, xanthine 3-N-oxide]
solubility in DMSO ([13]; DMSO): insoluble in DMSO

O=C1C=C(O)C(=O)c2ccccc21 [Compound 120, 2-hydroxy-1,4-naphthoquinone]
Hb control % ↓ OD ([8]; log conc -4 (M)): 4.4%
IC50 [14]: > 10 µM
inhibition at 1 µM [11, 16]: 7.1 ± 6.7%
inhibition at 10 µM [11, 16]: 4.7 ± 0.9%
inhibition at 100 µM [11, 16]: -2.3 ± 3.1%
IC50 [11, 17]: > 1000 µM
IC50 [11, 18]: > 1000 µM
inhibition of hemolytic activity [6]: did not
IC50 [6, 19]: > 100 µM
IC50 [6, 15]: > 100 µM
inhibition at 100 µM [6, 20]: 6.2%
cytotoxicity at 15 h, 1 µM [7]: 0.5 ± 0.3%
cytotoxicity at 15 h, 10 µM [7]: -6 ± 5%
cytotoxicity at 15 h, 100 µM [7]: -7 ± 4.4%
inhibition of syncytia formation ([12]; 10 μM): Significant inhibition was not observed
